Assay results reported in PubChem BioAssay AID2060891 (Molecular Pharmacology Branch, DTP, NCI, 2025).
“And” between values parts separate entries of the source, which are not always exact repeats. Equal entries are not always repeated. Blank lines part the entries; values can stand above or below the molecule they belong to.

Tested on: K98450-129-R-PDC complex spheroid growth, percent test/control
Assay: Anticancer human tumor K98450-129-R-PDC patient-derived colon adenocarcinoma cell line growth inhibition [RAS]
Details: for viability, T/C: stronger effect = lower value
Source text: RAS pathway inhibitors in Combinations in Complex Spheroids
A high-throughput screen of multi-cell type tumor spheroids was designed to identify active combinations of RAS pathway inhibitors and targeted small molecules. Complex spheroids include a stromal component modeled by human endothelial cells (HUVEC) and fibroblasts modeled by human mesenchymal stem cells (MSCs). The concentration ranges selected for each drug and investigational agent were based upon clinically achievable concentrations if the clinical Cmax of the agent was known.
Compounds. The drugs and investigational agents: abemaciclib (NSC768073), cobimetinib (NSC768068), divarasib (GDC6063, NSC841802), docetaxel (NSC628503), GDC-1971 (RLY-1971, NSC841576), gemcitabine (NSC613327), inavolisib (NSC800729), ipatasertib (NSC767898), KB-0742 (NSC834161), MRTX-1133 (NSC836407), osimertinib (NSC779217), RMC-4630 (NSC839698), RMC-6236 (NSC851965), RMC-6291 (NSC852671), Ro-3306 (NSC812927), sapanisertib (NSC764658), SN-38 (NSC673596), staurosporine (NSC755774), SY5609 (NSC837396), and tovorafenib (DAY101, NSC766906), were obtained from the National Cancer Institute (NCI) Developmental Therapeutics Program Chemical Repository. The FDA-approved anticancer drug set is available from the NCI Developmental Therapeutics Program. […] The stock solutions were prepared in dimethyl sulfoxide (DMSO, Sigma-Aldrich, St. Louis, MO, cat. D2650) at 800-fold the tested concentration and stored at -70 degrees C prior to their use. All drugs and investigational agents were tested over a range starting from a high concentration at or near the clinical Cmax and decreasing in half-log increments. If the clinical Cmax for an agent had not been determined, the highest concentration tested was 10 microM.
Cell Culture. All cells were maintained in an incubator at 37 degrees C and 5% CO2 with 95% humidity. The PDC lines were cultured according to standard operating procedures established by the NCI PDMR. All PDCs were thawed and cultured in Matrigel-coated flasks prepared with a working solution of 1X Ham's F-12 nutrient mix, without supplementation (Invitrogen, Waltham, MA, cat. 11765054), 100 U/mL penicillin-streptomycin (Invitrogen, cat. 15140122), and 2.5% Matrigel (Corning Inc., Corning, NY, cat. 354248) for the first three passages. The 362531-283-R-J2-PDC and 782815-120-R-J1-PDC lines were cultured in 6C/Colon 1B media, which includes advanced DMEM/F-12 (Thermo Fisher Scientific, cat. 12634028), 10 mM HEPES (Thermo Fisher Scientific, cat. 15630080), 1X GlutaMAX supplement (Thermo Fisher Scientific, cat. 35050061), 0.1 mg/mL primocin (InvivoGen, San Diego, CA, cat. ant-pm-2), 10% defined fetal bovine serum, heat inactivated (HyClone Laboratories Inc., Logan, UT, cat. SH30070.03HI), 50% L-WRN conditioned media (ATCC, cat. CRL-3276), 1.25 mM N-Acetyl-L-cysteine (Sigma-Aldrich, cat. A9165), 10 mM nicotinamide (Sigma-Aldrich, cat. N0636), 1X B-27 supplement (Thermo Fisher Scientific, cat. 17504044), 1X N-2 supplement (Thermo Fisher Scientific, cat. 17502048), 50 ng/mL human EGF (Thermo Fisher Scientific, cat. PHG0311), and 10 microM Y-27632 dihydrochloride (Tocris Bioscience, cat. 1254). The K12877-001-R-J1-PDC line was cultured in 6I media, which includes all 6C/Colon 1B media plus 10 ng/mL human FGF-10 (PeproTech, cat. 100-26), 1 ng/mL human FGF-2 (PeproTech, cat. 100-18B), 1 µM prostaglandin E2 (Tocris Bioscience, cat. 2296), […] hydrocortisone (Sigma-Aldrich, cat. H4001), and […] bovine insulin (Sigma-Aldrich, cat. I6634). The K86415-001-R-J1-PDC line was cultured in 6D media, which includes all 6C/Colon 1B media components minus the L-WRN conditioned media. The 485176-168-R4-J1-PDC was cultured in PANC media, which includes all 6C/Colon 1B media plus 100 ng/mL human FGF-10 (PeproTech, cat. 100-26), 500 nM SB-431542 (Selleckchem, cat. S1067), and 10 nM gastrin (Tocris Bioscience, cat. 3006). […]

[1] = compound alone, run of 06/10/2024
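Further: spheroids exposed to agents for seven days before the viability readout.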
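Wherever viability, T/C is given: luminescence used as a proxy for viable cell amount.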

Structure (SMILES): C#Cc1c(F)ccc2cc(O)cc(-c3ncc4c(N5CC6CCC(C5)N6)nc(OCC56CCCN5CC(F)C6)nc4c3F)c12 (stereo not given)
- viability, T/C (compound 0.0316 µM): 106% [middle of 8 runs]
- viability, T/C (compound 0.1 µM): 105% [middle of 7 runs]
- viability, T/C (compound 0.316 µM): 105% [middle of 8 runs]
- viability, T/C (compound 1 µM): 102% [middle of 8 runs]
- viability, T/C (compound 3.16 µM): 102% [middle of 8 runs]
- viability, T/C (compound 10 µM): 95.1% [middle of 8 runs]
- IC50 [1]: > 10 µM

Structure (SMILES): C=CC(=O)N1CCN(c2nc(OCC3CCCN3C)nc3c(F)c(-c4nc(N)cc(C)c4C(F)(F)F)c(Cl)cc23)C(C)C1 (stereo not given)
- viability, T/C (compound 0.00316 µM): 97.9% [middle of 12 runs]
- viability, T/C (compound 0.01 µM, compound 0.0316 µM): 70.9%
- viability, T/C (compound 0.01 µM, compound 0.1 µM): 59.3%
- viability, T/C (compound 0.01 µM, compound 0.316 µM): 39.6%
- viability, T/C (compound 0.01 µM, compound 1 µM): 29%
- viability, T/C (compound 0.0316 µM, compound 0.00316 µM): 71.2%
- viability, T/C (compound 0.0316 µM, compound 0.01 µM): 65.5%
- viability, T/C (compound 0.0316 µM, compound 0.1 µM): 51.4%
- viability, T/C (compound 0.0316 µM, compound 0.316 µM): 42.2%
- viability, T/C (compound 0.0316 µM, compound 1 µM): 28.1%
- viability, T/C (compound 0.0316 µM): 71.5% [middle of 13 runs]
- viability, T/C (compound 0.1 µM, compound 0.00316 µM): 54.4%
- viability, T/C (compound 0.1 µM, compound 0.01 µM): 52.5%
- viability, T/C (compound 0.1 µM, compound 0.0316 µM): 56.5%
- viability, T/C (compound 0.1 µM, compound 0.316 µM): 41.4%
- viability, T/C (compound 0.1 µM, compound 1 µM): 30.8%
- viability, T/C (compound 0.1 µM): 53.1% [middle of 13 runs]
- viability, T/C (compound 0.316 µM, compound 0.00316 µM): 40.9%
- viability, T/C (compound 0.316 µM, compound 0.01 µM): 38.6%
- viability, T/C (compound 0.316 µM, compound 0.0316 µM): 43.2%
- viability, T/C (compound 0.316 µM, compound 0.1 µM): 38.7%
- viability, T/C (compound 0.316 µM, compound 1 µM): 31.3%
- viability, T/C (compound 0.316 µM): 40.2% [middle of 13 runs]
- viability, T/C (compound 1 µM, compound 0.00316 µM): 31.1%
- viability, T/C (compound 1 µM, compound 0.01 µM): 35.5%
- viability, T/C (compound 1 µM, compound 0.0316 µM): 31.5%
- viability, T/C (compound 1 µM, compound 0.1 µM): 30.9%
- viability, T/C (compound 1 µM, compound 0.316 µM): 33.1%
- viability, T/C (compound 1 µM): 34% [middle of 13 runs]
- IC50 [1]: 148 nM [middle of 8 runs]
- IC50 (curve of compound): 144 nM [middle of 4 runs]

Structure (SMILES): C=CC(=O)Nc1cc(Nc2nccc(-c3cn(C)c4ccccc34)n2)c(OC)cc1N(C)CCN(C)C
- viability, T/C (compound 0.00316 µM): 102% (2×) and 95.4% and 104%
- viability, T/C (compound 0.01 µM): 96.2% [middle of 4 runs]
- viability, T/C (compound 0.1 µM): 100% [middle of 4 runs]
- viability, T/C (compound 0.316 µM): 70.7% [middle of 4 runs]
- viability, T/C (compound 1 µM): 36% [middle of 4 runs]
- IC50 (curve of compound): 633 nM [middle of 4 runs]

Structure (SMILES): CC(Nc1ccc2c(c1)OCCn1cc(N3C(=O)OCC3C(F)F)nc1-2)C(N)=O (stereo not given)
- viability, T/C (compound 0.0316 µM): 99.5% [middle of 4 runs]
- viability, T/C (compound 0.1 µM): 91.6% [middle of 4 runs]
- viability, T/C (compound 0.316 µM): 91.2% [middle of 4 runs]
- viability, T/C (compound 1 µM): 88.9% [middle of 4 runs]
- viability, T/C (compound 3.16 µM): 81.3% [middle of 4 runs]
- viability, T/C (compound 10 µM): 73.7% [middle of 4 runs]
- IC50 (curve of compound): > 10 µM

Structure (SMILES): CC1(O)CCCC1n1c(=O)c(C(F)F)cc2cnc(NC3CCN(S(C)(=O)=O)CC3)nc21 (stereo not given)
- viability, T/C (compound 0.0316 µM): 102% (2×) and 99.8% and 90.2%
- viability, T/C (compound 0.1 µM): 95.5% [middle of 4 runs]
- viability, T/C (compound 0.316 µM): 91.1% [middle of 4 runs]
- viability, T/C (compound 1 µM): 79% [middle of 4 runs]
- viability, T/C (compound 3.16 µM): 79% [middle of 4 runs]
- viability, T/C (compound 10 µM): 73.3% [middle of 4 runs]
- IC50 (curve of compound): > 10 µM

Structure (SMILES): CCC(CC)c1cc(NC2CCC(N)C2)n2nccc2n1 (stereo not given)
- viability, T/C (compound 0.0316 µM): 99.1% [middle of 4 runs]
- viability, T/C (compound 0.316 µM): 99.2% [middle of 4 runs]
- viability, T/C (compound 1 µM): 102% (2×) and 98% and 94%
- viability, T/C (compound 3.16 µM): 90.9% [middle of 4 runs]
- viability, T/C (compound 10 µM): 17.7% [middle of 4 runs]
- IC50 (curve of compound): 5.89 µM [middle of 4 runs]

Structure (SMILES): C[C@@H](NC(=O)c1ncnc(N)c1Cl)c1ncc(C(=O)Nc2cc(C(F)(F)F)c(Cl)cn2)s1
- viability, T/C (compound 0.0316 µM): 110% [middle of 4 runs]
- viability, T/C (compound 0.316 µM): 122% [middle of 4 runs]
- viability, T/C (compound 1 µM): 126% [middle of 4 runs]
- viability, T/C (compound 10 µM): 106% [middle of 4 runs]
- IC50 (curve of compound): > 10 µM

Structure (SMILES): Nc1ccn(C2OC(CO)C(O)C2(F)F)c(=O)n1 (stereo not given)
- viability, T/C (compound 0.00316 µM): 80.7% and 103% (2×) and 107%
- viability, T/C (compound 0.01 µM): 96.2% [middle of 4 runs]
- viability, T/C (compound 0.0316 µM): 78.8% [middle of 4 runs]
- viability, T/C (compound 1 µM): 49.4% [middle of 4 runs]

Continued, in another order:

- IC50 (curve of compound): > 10 µM
Structure (SMILES): CC(C)NCC(C(=O)N1CCN(c2ncnc3c2C(C)CC3O)CC1)c1ccc(Cl)cc1 (stereo not given)
- viability, T/C (compound 0.0316 µM): 103% [middle of 4 runs]
- viability, T/C (compound 0.1 µM): 97.1% [middle of 4 runs]
- viability, T/C (compound 0.316 µM): 104% (2×) and 111% and 88.1%
- viability, T/C (compound 1 µM): 102% [middle of 4 runs]
- viability, T/C (compound 3.16 µM): 104% [middle of 4 runs]
- viability, T/C (compound 10 µM): 101% [middle of 4 runs]

- IC50 (curve of compound): > 1 µM
Structure (SMILES): CCN1CCN(Cc2ccc(Nc3ncc(F)c(-c4cc(F)c5nc(C)n(C(C)C)c5c4)n3)nc2)CC1
- viability, T/C (compound 0.00316 µM): 103% [middle of 4 runs]
- viability, T/C (compound 0.01 µM): 99.4% [middle of 4 runs]
- viability, T/C (compound 0.0316 µM): 96.8% [middle of 4 runs]
- viability, T/C (compound 0.1 µM): 97.3% [middle of 4 runs]

- IC50 (curve of compound): 3.66 µM [middle of 4 runs]
Structure (SMILES): Cc1nc(N2CCC3(CC2)COC(C)C3N)c(CO)nc1Sc1ccnc(N)c1Cl (stereo not given)
- viability, T/C (compound 0.0316 µM): 96.9% [middle of 4 runs]
- viability, T/C (compound 0.1 µM): 92.8% [middle of 4 runs]
- viability, T/C (compound 0.316 µM): 86.5% [middle of 4 runs]
- viability, T/C (compound 1 µM): 77.2% [middle of 4 runs]
- viability, T/C (compound 3.16 µM): 53.1% [middle of 4 runs]
- viability, T/C (compound 10 µM): 28.8% [middle of 4 runs]

- IC50 (curve of compound): 193 nM [middle of 4 runs]
Structure (SMILES): NC1c2ccccc2OC12CCN(c1cnc3c(N4CCCc5ncccc54)n[nH]c3n1)CC2 (stereo not given)
- viability, T/C (compound 0.0316 µM): 90.2% [middle of 4 runs]
- viability, T/C (compound 0.1 µM): 67.2% [middle of 4 runs]
- viability, T/C (compound 0.316 µM): 39.9% [middle of 4 runs]
- viability, T/C (compound 1 µM): 25.4% [middle of 4 runs]
- viability, T/C (compound 3.16 µM): 19.4% [middle of 4 runs]
- viability, T/C (compound 10 µM): 25% [middle of 4 runs]

- IC50 (curve of compound): 190 nM [middle of 4 runs]
Structure (SMILES): O=C(c1ccc(F)c(F)c1Nc1ccc(I)cc1F)N1CC(O)([C@@H]2CCCCN2)C1
- viability, T/C (compound 0.00316 µM): 103% [middle of 4 runs]
- viability, T/C (compound 0.0316 µM): 97.5% [middle of 4 runs]
- viability, T/C (compound 0.1 µM): 82.3% [middle of 4 runs]
- viability, T/C (compound 0.316 µM): 21.8% [middle of 4 runs]
- viability, T/C (compound 1 µM): 3.22% [middle of 4 runs]
